From patent US20260207795A1, “SMALL MOLECULE TRACERS BINDING TO ALPHA-SYNUCLEIN AGGREGATES AND THEIR USES” (Fudan University, priority 2021, published 2026)

Legend:
[1] = Blood-brain barrier permeability test in rat; type: in vivo; conditions: brain homogenate / blood supernatant after centrifugation, intravenous, SD rats, 5 mg/kg tail vein, 20 min after administration, LC-MS/MS, >0.3 indicates good blood-brain barrier penetration, read-out: brain/blood ratio
Experimental: The compound of the invention is injected into a rat tail vein to determine the blood-brain barrier permeability in vivo according to the following method.
Dissolve the tested compound in DMSO, and add castor oil and PBS for dilution (DMSO:castor oil:PBS=1:1:8). SD rats were weighed and given 5 mg/kg in the tail vein. 500 μL of blood was taken 20 min after administration after anesthetized with isoflurane. Cardiac perfusion was performed with 200 mL PBS and stopped until the organ faded, following brain tissue was got out and washed with PBS.
After centrifuging the extracted blood at 9000 rpm for 5 min, 200 μL supernatant was taken, and added 800 μL methanol. After centrifuging at 14000 rpm for 10 min, the supernatant was taken and filtered through a 0.22 μm filter membrane and stored at −80° C. for use. 2 mL PBS and 2 mL methanol were added to about 0.5 g of brain tissue to make a tissue homogenization, and then 1 mL homogenate was taken out and centrifuged at 14,000 rpm for 10 min after 2 mL methanol was added, 1 mL supernatant was taken through 0.22 μm filter membrane and stored at −80° C. for use. The concentration of compounds in the above supernatant of blood and brain homogenate were checked by LC-MS/MS, respectively.
A brain/blood ratio of <0.1, 0.1-0.3, or >0.3 indicates blood-brain barrier penetration of weak, moderate, or good, respectively. […] Since all the compounds of the invention have similar structures and their clogP values are mostly between 1.0 and 3.0, it can be predicted that other compounds of the invention should also have acceptable blood-brain barrier permeability.

[2] = biological target: T1, human α-synuclein aggregates (Homo sapiens, UniProt P37840); assay: Binding affinity of the compounds to α-synuclein aggregates (fluorescence method); conditions: fluorescence saturation binding; α-synuclein aggregates (PFFs) 3 μM; room temperature, 1 hour
T1 construct: made in house; host or cells: E. coli BL21 (DE3)
Experimental: α-synuclein monomers were prepared into a buffer solution containing 1×PBS, where the final protein concentration was 100 μM ([…]), and incubated in a 1000 rpm shaker at 37° C. for 7 days to obtain α-synuclein aggregates. The initial and final concentrations of the monomer protein were determined by the BCA method.
The prepared α-synuclein aggregates, also known as preformed fibrils (PFFs), are used for protein affinity testing, construction of cell model, and testing of the invention.
10 mM mother solution of DMSO was prepared from 1 mg of the compound, then diluted to 20 μM with PBS, and made gradient dilution 7 times (3× each dilution); 30 μL of test compound was added to the 384-well plate, following the experimental group was added to 30 μL α-synuclein aggregates (3 μM), and the control group was added to the same amount of PBS. After the 384-well plate was incubated shaking at 50 rpm at room temperature for 1 hour, the plate was taken out to detect the maximum absorption and emission wavelengths of the compound with an ELISA Microplate Reader, and the fluorescence values were detected at these wavelengths, too. The fluorescence changes in different concentrations of compounds were calculated using the experimental group data minus the control group data, and the protein-binding affinity of compounds was obtained using the Saturation binding module of GraphPad Prism.
The binding affinity of the Formula I compound to α-synuclein aggregates is determined by the above method, and the dissociation equilibrium constant Kd is shown in Table 1.

[3] = biological target: T2, α-synuclein aggregates in SH-SY5Y cells (Homo sapiens, UniProt P37840); assay: Immunofluorescence imaging of SH-SY5Y cell model with α-synuclein aggregates (PFFs); type: cell-based; conditions: co-staining with α-synuclein antibody, compound 1 h at room temperature
T2 construct: made in house; host or cells: E. coli BL21 (DE3)
Experimental: SH-SY5Y cells belong to the SK—N—SH cell line and are a kind of human neuroblastoma cells. These cells can express a variety of important proteins of neurons, such as dopaminergic transporters, dopamine hydroxylase, and tyrosine hydroxylase, so they are often used in the study of the mechanism and pharmacodynamic evaluation of Parkinson's disease. The prepared α-synuclein aggregates (PFFs) are co-incubated with SH-SY5Y cells and endocytosed into cells after 12 hours through endocytosis. The cells were further incubated with α-synuclein antibodies and compounds successively, and observed by microscope after washing with PBS. The detailed operations are as follows.
SH-SY5Y cells were cultured in a high-glucose DMEM medium (containing 10% Gibco fetal bovine serum). After 5 times of resuscitation and passage, the cell state tended to be stable. Then PFFs was added to the medium and fluorescent staining was performed after 48 h. After sucked the cell culture solution and cleaned with PBS three times, 0.3% Triton X-100 was added and incubated for 10 min. After washing with PBS, 10% goat serum was added and closed for 1 h; After cleaning with PBS, primary antibody (1:1000, 610786, BD Biosciences) was added and incubated at 4° C. overnight. After cleaning with PBS, secondary antibodies (1:1000, goat-anti-rabbit Alex Fluor 594, and goat-anti-mouse Alex Fluor 488, Invitrogen) were added and incubated at room temperature for 2 h. Finally, the compound of the invention is added and incubated at room temperature for 1 h. After cleaning with PBS, the tablet is sealed and photographed by a laser confocal microscope.

[4] = biological target: T3, Lewy bodies and Lewy neurites (α-synuclein lesions) (Homo sapiens, UniProt P37840); assay: Fluorescence staining of brain slices from patients of dementia with Lewy body (DLB)
T3 construct: from tissue; host or cells: human DLB patient amygdala, fresh frozen sections
Experimental: Brain slices from patients of dementia with Lewy bodies were taken from the amygdala of a deceased person in stage 2 of dementia with Lewy bodies. Frozen sections of the amygdala with rich α-synuclein were performed with a thickness of 20 μm.
(§1) Compound I-15 was diluted to 30 μM with PBS solution containing 50% EtOH, following incubated with the fresh frozen brain sections at room temperature for 30 minutes, then washed with 50% ethanol solution for 5 minutes and ultra-pure water twice for 3 minutes each time in sequence. After the sections were buried with an embedding agent (VECTASHIELD H-1000, Vector Laboratories), images of the lesion accumulation area on the sections were obtained by fluorescence microscopy. Analysis software (Image J) was used to quantify the fluorescence radiance of both the lesion area and the area of the non-forming lesion (background) to evaluate binding selectivity.

[5] = tested on: Aβ plaques and Tau neurofibrillary tangles; assay: Fluorescence staining of brain slices from patients with Alzheimer's disease (AD); set-up: species or system human; conditions: AD patient superior temporal gyrus sections, compound 30 μM
Experimental: as §1
The dewaxed brain tissue was fixed in a 10% neutral buffer of formalin solution, embedded with paraffin, and then sliced with a thickness of 6 μm. The staining method is the same as the above method for DLB patients.

CN(C)c1ccc(/C=C/c2nc3cc(OCCF)ccc3n(Cc3ccccn3)c2=O)cc1 [I-6]
Kp at 20 min [1]: ≥ 1
Kd [2]: 0.2 to 0.5 µM
binding to α-synuclein aggregates in SH-SY5Y cells (immunofluorescence, FIG. 1) [3]: excellent binding affinity and specificity

CN(C)c1ccc(/C=C/c2nc3cc(OCCF)ccc3n(Cc3ccncc3)c2=O)cc1 [I-12]
Kp at 20 min [1]: ≥ 1
Kd [2]: 0.2 to 0.5 µM
binding to α-synuclein aggregates in SH-SY5Y cells (immunofluorescence, FIG. 1) [3]: excellent binding affinity and specificity

CN(C)c1ccc(/C=C/c2nc3cc(OCCF)ccc3n(Cc3cccnc3)c2=O)cc1 [I-9]
Kd [2]: 0.5 to 1 µM

CN(C)c1ncc(/C=C/c2nc3cc(OCCF)ccc3n(Cc3ccccn3)c2=O)s1 [I-15]
binding affinity to α-synuclein lesions (staining of Lewy bodies and Lewy neurites, FIG. 2) ([4]; DLB patient amygdala frozen sections, compound 30 μM, 30 minutes): strong binding affinity
binding to α-synuclein pathological tissue compared with Aβ and Tau pathological tissue (selectivity) ([4]; DLB versus AD brain slices, FIG. 2 and FIG. 3): significantly stronger
binding affinity to Aβ and Tau histology (FIG. 3) [5]: very weak
binding to Tau neurofibrillary filaments (FIG. 3) [5]: did not bind
Kp at 20 min [1]: ≥ 1
Kd [2]: 0.1 to 0.2 µM
binding to α-synuclein aggregates in SH-SY5Y cells (immunofluorescence, FIG. 1) [3]: excellent binding affinity and specificity

CN(C)c1ccc(/C=C/c2nc3cc(F)ccc3n(Cc3ccccn3)c2=O)cc1 [I-1]
Kd [2]: 0.1 to 0.2 µM

CN(C)c1ccc(/C=C/c2nc3cc(F)ccc3n(Cc3ccncc3)c2=O)cc1 [I-3]
Kd [2]: 0.5 to 1 µM

CN(C)c1ccc(/C=C/c2nc3cc(F)ccc3n(Cc3cccnc3)c2=O)cc1 [I-2]
Kd [2]: 0.5 to 1 µM
